Literature values as cited in US9221747B2, “Method of making fatty acid N-acylalkanolamines” (Iowa State University Research Foundation, Inc., priority 2012, dated 2015).

Settings: at −20° C.

solubility in methanol [g/100 g methanol]	Compound
4.02	CCCCCCCC/C=C\CCCCCCCC(=O)O [oleic acid]
233	CCCCC/C=C\C/C=C\CCCCCCCC(=O)O [linoleic acid]
